Results published in patent US10961247B2, “Pyrazolopyrimidine derivatives as kinase inhibitor” (Daewoong Pharmaceutical Co., Ltd., priority 2016, dated 2021).

Legend:
[1] = molecular target: Recombinant purified human BTK (Homo sapiens (Human), UniProt Q06187); test: BTK enzyme inhibitory activity, ADP Glo kinase assay (Promega V9071); assay type: biochemical; conditions: for inhibition at 0.1 µM: 100 nM compound; for IC50: ATP 10 uM, 1 hour 30° C.
Procedure: (§1) JAK3 and BTK kinase inhibitory activities were measured for the compounds prepared in the above Examples through in vitro analysis on the ADP Glow (Glo) platform.
(§2) Specifically, the inhibitory activities of JAK3 and BTK kinase were measured using a JAK3 kinase assay kit (Promega, V9441) and a BTK kinase assay kit (Promega, V9071) which were purchased from Promega. Recombinant purified human JAK3 and BTK were diluted with 1×kinase reaction buffer (JAK3: 40 mM Tris-Cl, pH 7.5, 20 mM MgCl2, 0.1 mg/mL BSA and 50 uM DTT/BTK: 40 mM Tris-Cl, pH 7.5, 20 mM MgCl2, 0.1 mg/mL BSA, 2 mM MnCl2 and 50 uM DTT) and added to a 96 well plate (JAK3: final concentration of 4 ng per reaction/BTK: final concentration of 8 ng per reaction). The compounds were treated so as to be finally a 1% DMSO aqueous solution, and a substrate cocktail containing ATP (JAK3: final concentration of 5 uM/BTK: final concentration of 10 uM) and 0.2 μg/μL of Poly(Glu4, Tyr1) peptide (JAK3 and BTK final concentration) in the total […] reactants was added to a 96-well plate to initiate enzymatic reaction. After incubation (30° C.) for 1 hour, equivalent volume ([…] per reaction) of ADP Glo was added and incubated (30° C.) for 40 minutes at room temperature. Then, a kinase detection reagent ([…] per reaction) was added and incubated (30° C.) for 30 minutes at room temperature. The kinase activity was measured by chemiluminescence according to the instructions of ADP Glo kinase assay kit, and the inhibitory activity of the compounds according to the present invention was calculated. For the analysis of the results of each compound, Microsoft Excel was used, and IC50 values were calculated by SigmaPlot software.

[2] = molecular target: Recombinant purified human JAK3 (Homo sapiens (Human), UniProt P52333); test: JAK3 enzyme inhibitory activity, ADP Glo kinase assay (Promega V9441); assay type: biochemical; conditions: ATP 5 uM, 1 hour 30° C.
Procedure: as §1, §2

Chain of Recombinant purified human JAK3 (P52333 whole entry): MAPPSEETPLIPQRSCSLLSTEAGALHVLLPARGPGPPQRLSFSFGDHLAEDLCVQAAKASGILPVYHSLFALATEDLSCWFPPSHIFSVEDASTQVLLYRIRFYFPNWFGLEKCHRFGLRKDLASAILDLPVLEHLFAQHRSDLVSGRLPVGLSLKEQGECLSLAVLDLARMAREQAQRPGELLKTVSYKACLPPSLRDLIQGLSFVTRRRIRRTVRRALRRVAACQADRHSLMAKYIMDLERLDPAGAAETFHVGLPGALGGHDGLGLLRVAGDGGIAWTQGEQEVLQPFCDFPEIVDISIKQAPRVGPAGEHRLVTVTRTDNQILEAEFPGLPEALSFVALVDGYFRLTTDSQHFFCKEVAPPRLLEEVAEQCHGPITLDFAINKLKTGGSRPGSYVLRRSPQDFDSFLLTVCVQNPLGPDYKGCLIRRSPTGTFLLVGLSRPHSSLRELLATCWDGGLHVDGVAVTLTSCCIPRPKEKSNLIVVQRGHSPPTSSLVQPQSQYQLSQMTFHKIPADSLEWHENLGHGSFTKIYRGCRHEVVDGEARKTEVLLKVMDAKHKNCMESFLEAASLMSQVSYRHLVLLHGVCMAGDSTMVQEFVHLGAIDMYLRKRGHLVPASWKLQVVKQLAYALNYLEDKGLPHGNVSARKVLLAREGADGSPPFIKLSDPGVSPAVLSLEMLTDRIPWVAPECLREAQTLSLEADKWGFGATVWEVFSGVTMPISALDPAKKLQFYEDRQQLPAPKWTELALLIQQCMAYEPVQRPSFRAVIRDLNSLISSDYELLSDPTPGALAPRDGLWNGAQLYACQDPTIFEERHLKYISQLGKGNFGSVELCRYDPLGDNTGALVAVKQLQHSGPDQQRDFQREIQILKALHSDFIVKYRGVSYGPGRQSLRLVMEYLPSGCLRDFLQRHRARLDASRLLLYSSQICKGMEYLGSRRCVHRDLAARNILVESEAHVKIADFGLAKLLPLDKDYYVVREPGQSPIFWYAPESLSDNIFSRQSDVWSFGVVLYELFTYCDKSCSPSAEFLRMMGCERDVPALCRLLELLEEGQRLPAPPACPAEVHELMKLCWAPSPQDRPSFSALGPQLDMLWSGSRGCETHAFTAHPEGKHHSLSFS
Chain of Recombinant purified human BTK (Q06187 whole entry): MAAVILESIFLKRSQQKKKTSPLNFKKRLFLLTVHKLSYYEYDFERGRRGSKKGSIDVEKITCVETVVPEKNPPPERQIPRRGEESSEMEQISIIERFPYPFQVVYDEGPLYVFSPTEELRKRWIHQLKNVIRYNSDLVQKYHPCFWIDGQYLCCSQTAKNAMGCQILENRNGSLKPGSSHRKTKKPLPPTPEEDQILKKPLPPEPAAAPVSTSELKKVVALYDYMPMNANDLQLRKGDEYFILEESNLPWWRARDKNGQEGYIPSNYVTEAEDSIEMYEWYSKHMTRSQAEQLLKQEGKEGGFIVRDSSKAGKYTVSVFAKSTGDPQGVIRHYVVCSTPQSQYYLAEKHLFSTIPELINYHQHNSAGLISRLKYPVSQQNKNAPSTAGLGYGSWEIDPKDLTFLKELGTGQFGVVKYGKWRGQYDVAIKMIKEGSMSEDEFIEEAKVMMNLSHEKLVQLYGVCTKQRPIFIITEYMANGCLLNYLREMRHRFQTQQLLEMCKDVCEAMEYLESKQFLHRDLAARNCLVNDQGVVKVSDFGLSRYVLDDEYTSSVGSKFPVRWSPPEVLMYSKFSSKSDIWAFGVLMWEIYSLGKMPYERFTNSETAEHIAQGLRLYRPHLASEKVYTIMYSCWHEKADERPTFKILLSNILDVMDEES

SMILES	inhibition at 0.1 µM [1] [%]	IC50 [2] [nM]	IC50 [1] [nM]
C=CC(=O)N1CC[C@@H](C)[C@@H](N(C)c2nc(Nc3ccc(N4CCN(C)CC4)cc3)nc3[nH]ccc23)C1 [Example 27, 1-((3R,4R)-4-methyl-3-(methyl(2-(4-(4-methylpiperazin-1-yl)phenylamino)-7H-pyrrolo[2,3-d]pyrimidin-4-yl)amino)piperidin-1-yl)prop-2-en-1-one]	48		
C=CC(=O)N1CCC[C@@H](Nc2nc(Nc3cnn(CC)c3)nc3[nH]nc(Cl)c23)C1 [Example 46, (R)-1-(3-(3-chloro-6-(1-ethyl-1H-pyrazol-4-ylamino)-1H-pyrazolo[3,4-d]pyrimidin-4-ylamino)piperidin-1-yl)prop-2-en-1-one]		0.6	2
CC#CC(=O)N1CCC[C@@H](Nc2nc(Nc3ccc(N4CCN(C)CC4)cc3)nc3[nH]cc(Cl)c23)C1 [Example 143, (R)-1-(3-((5-chloro-2-((4-(4-methylpiperazin-1-yl)phenyl)amino)-7H-pyrrolo[2,3-d]pyrimidin-4-yl)amino)piperidin-1-yl)but-2-yn-1-one]		19.3	165
C=CC(=O)NC1CCCC(Nc2nc(Nc3ccc(N4CCN(C)CC4)cc3)nc3[nH]ccc23)C1 (stereo not shown) [Example 29, N-(3-(2-(4-(4-methylpiperazin-1-yl)phenylamino)-7H-pyrrolo[2,3-d]pyrimidin-4-ylamino)cyclohexyl)acrylamide]	47.1		
C=CC(=O)N1CCC[C@@H](Nc2nc(Nc3cnoc3)nc3[nH]nc(SC)c23)C1 [Example 130, (R)-1-(3-((6-(isoxazol-4-ylamino)-3-(methylthio)-1H-pyrazolo[3,4-d]pyrimidin-4-yl)amino)piperidin-1-yl)prop-2-en-1-one]		9	1.1
C=CC(=O)N1CC[C@@H](C)[C@@H](Nc2nc(Nc3cnn(CC)c3)nc3[nH]ccc23)C1 [Example 107, 1-((3R,4R)-3-((2-((1-ethyl-1H-pyrazol-4-yl)amino)-7H-pyrrolo[2,3-d]pyrimidin-4-yl)amino)-4-methylpiperidin-1-yl)prop-2-en-1-one]		3.7	7.8
C[C@@H]1CCN(C(=O)CC#N)C[C@@H]1N(C)c1nc(Nc2ccc(N3CCN(C)CC3)cc2)nc2[nH]ccc12 [Example 28, 3-((3R,4R)-4-methyl-3-(methyl(2-(4-(4-methylpiperazin-1-yl)phenylamino)-7H-pyrrolo[2,3-d]pyrimidin-4-yl)amino)piperidin-1-yl)-3-oxopropanenitrile]	3.3		
C=CC(=O)N1CCC[C@@H](Sc2nc(Nc3cnn(CC)c3)nc3[nH]cc(Cl)c23)C1 [Example 109, (R)-1-(3-((5-chloro-2-((1-ethyl-1H-pyrazol-4-yl)amino)-7H-pyrrolo[2,3-d]pyrimidin-4-yl)thio)piperidin-1-yl)prop-2-en-1-one]		0.3	2
